Converted amounts (≈) assume the structure as drawn. Read-outs that look alike come from different tables or passages of the source.
Columns and labels:
Assay in all cases: microbe, parasite or virus in culture
M. avium hominissuis = system: M. avium hominissuis; parameters: Whole-cell growth inhibition, dose-response MIC (MIC90) by resazurin microtiter assay (REMA), fluorescence read-out; settings: Mycobacterium avium
M. tuberculosis Erdman = system: T1, M. tuberculosis Erdman; parameters: Whole-cell growth inhibition, dose-response MIC (MIC90) by resazurin microtiter assay (REMA), fluorescence read-out; settings: Mycobacterium tuberculosis, ERDMAN
T1 construct: Erdman

M. abscessus = system: M. abscessus; parameters: Whole-cell growth inhibition, dose-response MIC (MIC90) by resazurin microtiter assay (REMA), fluorescence read-out; settings: Mycobacteroides abscessus
M. tuberculosis H37Rv = system: T2, M. tuberculosis H37Rv; parameters: Whole-cell growth inhibition, dose-response MIC (MIC90) by resazurin microtiter assay (REMA), fluorescence read-out; settings: Mycobacterium tuberculosis, H37RV
T2 construct: H37Rv

P. aeruginosa = system: P. aeruginosa; parameters: Whole-cell growth inhibition, dose-response MIC (MIC90) by resazurin microtiter assay (REMA), fluorescence read-out; settings: Pseudomonas aeruginosa
M. avium intracellulaire = system: M. avium intracellulaire; parameters: Whole-cell growth inhibition, dose-response MIC (MIC90) by resazurin microtiter assay (REMA), fluorescence read-out; settings: Mycobacterium avium
E. coli = system: E. coli; parameters: Whole-cell growth inhibition, dose-response MIC (MIC90) by resazurin microtiter assay (REMA), fluorescence read-out; settings: Escherichia coli
C. glutamicum = system: C. glutamicum; parameters: Whole-cell growth inhibition, dose-response MIC (MIC90) by resazurin microtiter assay (REMA), fluorescence read-out; settings: Corynebacterium glutamicum
B. cereus = system: B. cereus; parameters: Whole-cell growth inhibition, dose-response MIC (MIC90) by resazurin microtiter assay (REMA), fluorescence read-out; settings: Bacillus cereus
[1] = system: T3, Mycobacteroides abscessus subsp. abscessus MT16_1065; parameters: species or system M. abscessus; Resazurin microtiter assay (REMA), fluorescence; MIC at 90% growth inhibition from Gompertz fit; settings: 48 h, smooth morphotype
T3 construct: MT16_1065
Procedure: (§1) MIC values were determined using the resazurin microtiter assay (REMA). Cultures were grown to log phase (OD600 of 0.4–0.8) and diluted to OD600 of 0.005. Drugs were prepared in two-fold serial dilutions in 96-well plates with 90 μL of bacteria per well to a final volume of 100 μL. Plates were incubated at 37°C until drug-free wells were turbid (2 days for M. abscessus). Ten μL of resazurin (0.025% wt/vol) was added to each well. Once the drug-free wells turned pink (one doubling time), the fluorescence (ex/em 560nm/590nm) was measured using an Infinite F200 Tecan plate reader. Fluorescence intensities were converted to % viable cells relative to drug-free conditions and fit to the Gompertz equation using GraphPad Prism version 9. MIC values at 90% growth inhibition were determined from the nonlinear regression Gompertz equation. Next, we tested the in vitro activity of EPT against a panel of M. abscessus clinical isolates belonging to the three subspecies of the M. abscessus complex (M. abscessus, M. massiliense, and M. bolletii) with smooth and rough colony morphologies and with different drug susceptibility profiles to various antibiotics. There was no loss in activity against clinical isolates (range of 0.014–0.046 μg/mL) nor different morphologies (S2 Table). To determine the spectrum of activity of EPT, we curated a panel of various mycobacteria and representative gram-positive and gram-negative bacteria. […] Mycobacteria strains were grown in rolling [compound left out] culture at 37°C in Middlebrook 7H9 (Difco) supplemented with 10% albumin dextrose catalase (ADC), 0.2% glycerol, and 0.05% Tween 80 (7H9 complete) or on 7H10 agar plates supplemented with 10% oleic acid ADC and 0.5% glycerol at 37°C. When mentioned, the carbon source was modified from glycerol to acetate or the detergent Tween 80 was removed from the media. Bacillus cereus (clinical isolate), Corynebacterium glutamicum (ATCC 13032), Escherichia coli, and Pseudomonas aeruginosa PAO1 were grown in LB broth. HepG2 cells (ATCC HB-8065) were grown in Dulbecco’s modified Eagle’s medium (DMEM) with phenol red (from Gibco) supplemented with 10% fetal bovine serum at 37°C with 5% CO2.

[2] = system: T4, Mycobacteroides abscessus subsp. bolletii Paris 167; parameters: species or system M. abscessus; Resazurin microtiter assay (REMA), fluorescence; MIC at 90% growth inhibition from Gompertz fit; settings: 48 h, rough morphotype, read-out: MIC CFX
T4 construct: Paris 167
Procedure: as §1

[3] = system: T5, Mycobacteroides abscessus subsp. abscessus MT16_6490; parameters: species or system M. abscessus; Resazurin microtiter assay (REMA), fluorescence; MIC at 90% growth inhibition from Gompertz fit; settings: 48 h, smooth morphotype
T5 construct: MT16_6490
Procedure: as §1

[4] = system: T6, Mycobacteroides abscessus subsp. bolletii AV; parameters: species or system M. abscessus; Resazurin microtiter assay (REMA), fluorescence; MIC at 90% growth inhibition from Gompertz fit; settings: 48 h, smooth morphotype
T6 construct: AV
Procedure: as §1

[5] = system: T7, Mycobacteroides abscessus subsp. massiliense MT15_1749; parameters: species or system M. abscessus; Resazurin microtiter assay (REMA), fluorescence; MIC at 90% growth inhibition from Gompertz fit; settings: 48 h, rough morphotype
T7 construct: MT15_1749
Procedure: as §1

[6] = system: T8, Mycobacteroides abscessus subsp. massiliense MT15_1748; parameters: species or system M. abscessus; Resazurin microtiter assay (REMA), fluorescence; MIC at 90% growth inhibition from Gompertz fit; settings: 48 h, rough morphotype
T8 construct: MT15_1748
Procedure: as §1

[7] = system: T9, Mycobacteroides abscessus subsp. abscessus ATCC 19977; parameters: species or system M. abscessus; Resazurin microtiter assay (REMA), fluorescence; MIC at 90% growth inhibition from Gompertz fit; settings: ATCC19977, 48 h, rough morphotype, read-out: MIC AMK
T9 construct: ATCC 19977
Procedure: as §1

Structure (SMILES): CO[C@@]1(NC(=O)Cc2cccs2)C(=O)N2C(C(=O)O)=C(COC(N)=O)CS[C@@H]21 [Cefoxitin]
- MIC (M. avium hominissuis; read-out: MIC (µg/mL) / CFX): 4.7 µg/mL (≈ 11 µM)
- MIC (M. tuberculosis Erdman; read-out: MIC (µg/mL) / CFX): > 98 µg/mL
- MIC (M. abscessus; read-out: MIC (µg/mL) / CFX): 12 µg/mL (≈ 28.1 µM)
- MIC (M. tuberculosis H37Rv; read-out: MIC (µg/mL) / CFX): > 98 µg/mL
- MIC (P. aeruginosa; read-out: MIC (µg/mL) / CFX): > 98 µg/mL
- MIC (M. avium intracellulaire; read-out: MIC (µg/mL) / CFX): 0.42 µg/mL (≈ 0.983 µM)
- MIC (E. coli; read-out: MIC (µg/mL) / CFX): 4 µg/mL (≈ 9.36 µM)
- MIC (C. glutamicum; read-out: MIC (µg/mL) / CFX): 98 µg/mL (≈ 229 µM)
- MIC (B. cereus; read-out: MIC (µg/mL) / CFX): > 98 µg/mL
- MIC ([1]; read-out: MIC CFX): 13 µg/mL (≈ 30.4 µM)
- MIC [2]: 16 µg/mL (≈ 37.4 µM)
- MIC ([3]; read-out: MIC CFX): 13 µg/mL (≈ 30.4 µM)
- MIC ([4]; read-out: MIC CFX): 15 µg/mL (≈ 35.1 µM)
- MIC ([5]; read-out: MIC CFX): 16 µg/mL (≈ 37.4 µM)
- MIC ([6]; read-out: MIC CFX): 26 µg/mL (≈ 60.8 µM)

Structure (SMILES): NCC[C@H](O)C(=O)N[C@@H]1C[C@H](N)[C@@H](O[C@H]2O[C@H](CN)[C@@H](O)[C@H](O)[C@H]2O)[C@H](O)[C@H]1O[C@H]1O[C@H](CO)[C@@H](O)[C@H](N)[C@H]1O [Amikacin]
- MIC (M. avium hominissuis; read-out: MIC (µg/mL) / AMK): 5.6 µg/mL (≈ 9.56 µM)
- MIC (M. tuberculosis Erdman; read-out: MIC (µg/mL) / AMK): 0.48 µg/mL (≈ 0.82 µM)
- MIC (M. abscessus; read-out: MIC (µg/mL) / AMK): 4.8 µg/mL (≈ 8.2 µM)
- MIC (M. tuberculosis H37Rv; read-out: MIC (µg/mL) / AMK): 0.3 µg/mL (≈ 0.512 µM)
- MIC (P. aeruginosa; read-out: MIC (µg/mL) / AMK): 0.22 µg/mL (≈ 0.376 µM)
- MIC (M. avium intracellulaire; read-out: MIC (µg/mL) / AMK): 3.8 µg/mL (≈ 6.49 µM)
- MIC (E. coli; read-out: MIC (µg/mL) / AMK): 0.15 µg/mL (≈ 0.256 µM)
- MIC (C. glutamicum; read-out: MIC (µg/mL) / AMK): 0.064 µg/mL (≈ 0.109 µM)
- MIC (B. cereus; read-out: MIC (µg/mL) / AMK): 64 µg/mL (≈ 109 µM)
- MIC ([1]; read-out: MIC AMK): 2.1 µg/mL (≈ 3.59 µM)
- MIC ([3]; read-out: MIC AMK): 5.7 µg/mL (≈ 9.73 µM)
- MIC ([4]; read-out: MIC AMK): 7 µg/mL (≈ 12 µM)
- MIC ([5]; read-out: MIC AMK): 8.8 µg/mL (≈ 15 µM)
- MIC ([6]; read-out: MIC AMK): 14 µg/mL (≈ 23.9 µM)
- MIC [7]: 2.4 µg/mL (≈ 4.1 µM)

From PMC8535176, “Efficacy of epetraborole against Mycobacterium abscessus is increased with norvaline” (PLoS Pathogens, 2021)
